Patent US9242001B2, “Cationic lipids for therapeutic agent delivery formulations” (Nitto Denko Corporation, priority 2011, dated 2016)

System: gp46 mRNA
Test: pHSC in vitro assay, gp46 gene knockdown by qRT-PCR
Assay type: cell-based, rat
Conditions: @ 50 nM

Structure (SMILES)	in vitro (pHSC) % KD
CCCCCCCCCCCC(=O)OCCN(CCOC(=O)CCCCCCCCCCC)C(=O)C[N+](C)(C)CCO.[Br-] [HEDC-12, 2-(bis(2-(dodecanoyloxy)ethyl)amino)-N-(2-hydroxyethyl)-N,N-dimethyl-2-oxoethanaminium bromide]	i. 0% @ 50 nM
CCCCC/C=C\C/C=C\CCCCCCCC(=O)OCCN(CCOC(=O)CCCCCCC/C=C\C/C=C\CCCCC)C(=O)C[N+](C)(C)CCO.[Br-] [HEDC-DLin, 2-(bis(2-((9Z,12Z)-octadeca-9,12-dienoyloxy)ethyl)amino)-N-(2-hydroxyethyl)-N,N-dimethyl-2-oxoethanaminium bromide]	i. 50% @ 50 nM
